From ChEMBL document CHEMBL3112450, “Synthesis and in vitro antitumor evaluation of primary amine substituted quinazoline linked benzimidazole” (Bioorg Med Chem Lett, 2014)

Tests used:
Assay type in all cases: functional
[1] = Cytotoxicity against human OVCAR4 cells assessed as cell growth at 10^-8 M after 48 hrs by SRB assay; settings: OVCAR-4, 48 h, read-out: Activity
BT-549 [2] = experiment: Cytotoxicity against human BT549 cells after 48 hrs by SRB assay; settings: BT-549, 48 h
SN12C [3] = experiment: Cytotoxicity against human SN12C cells assessed as cell growth at 10^-6 M after 48 hrs by SRB assay; settings: read-out: Activity
RXF 393 = experiment: Cytotoxicity against human RXF393 cells assessed as cell growth at 10^-4 M after 48 hrs by SRB assay; settings: RXF 393, 48 h, read-out: Activity
MDA-MB-468 = experiment: Cytotoxicity against human MDA-MB-468 cells assessed as cell growth at 10^-7 M after 48 hrs by SRB assay; settings: MDA-MB-468, 48 h, read-out: Activity
SK-MEL-2 = experiment: Cytotoxicity against human SK-MEL-2 cells assessed as cell growth at 10^-7 M after 48 hrs by SRB assay; settings: SK-MEL-2, 48 h, read-out: Activity
KM12 = experiment: Cytotoxicity against human KM12 cells after 48 hrs by SRB assay; settings: KM12, 48 h
NCI-H460 [4] = experiment: Cytotoxicity against human NCI-H460 cells assessed as cell growth at 10^-8 M after 48 hrs by SRB assay; settings: NCI-H460, 48 h, read-out: Activity
HCT-116 = experiment: Cytotoxicity against human HCT116 cells assessed as cell growth at 10^-6 M after 48 hrs by SRB assay; settings: HCT-116, 48 h, read-out: Activity
NCI-H460 [5] = experiment: Cytotoxicity against human NCI-H460 cells assessed as cell growth at 10^-4 M after 48 hrs by SRB assay; settings: NCI-H460, 48 h, read-out: Activity
SF-539 = experiment: Cytotoxicity against human SF539 cells assessed as cell growth at 10^-8 M after 48 hrs by SRB assay; settings: SF-539, 48 h, read-out: Activity
Malme-3M = experiment: Cytotoxicity against human MALME-3M cells assessed as cell growth at 10^-7 M after 48 hrs by SRB assay; settings: read-out: Activity
MOLT-4 [6] = experiment: Cytotoxicity against human MOLT4 cells after 48 hrs by SRB assay; settings: MOLT-4, 48 h
MDA-MB-231 = experiment: Cytotoxicity against human MDA-MB-231 cells assessed as cell growth at 10^-6 M after 48 hrs by SRB assay; settings: MDA-MB-231, 48 h, read-out: Activity
SNB-19 = experiment: Cytotoxicity against human SNB19 cells assessed as cell growth at 10^-7 M after 48 hrs by SRB assay; settings: SNB-19, 48 h, read-out: Activity
BT-549 [7] = experiment: Cytotoxicity against human BT549 cells assessed as cell growth at 10^-6 M after 48 hrs by SRB assay; settings: BT-549, 48 h, read-out: Activity
[8] = Cytotoxicity against human UO31 cells assessed as cell growth at 10^-7 M after 48 hrs by SRB assay; settings: UO-31, 48 h, read-out: Activity
[9] = Cytotoxicity against human OVCAR4 cells after 48 hrs by SRB assay; settings: OVCAR-4, 48 h
COLO 205 [10] = experiment: Cytotoxicity against human COLO205 cells assessed as cell growth at 10^-4 M after 48 hrs by SRB assay; settings: COLO 205, 48 h, read-out: Activity
SF-295 = experiment: Cytotoxicity against human SF295 cells assessed as cell growth at 10^-7 M after 48 hrs by SRB assay; settings: SF-295, 48 h, read-out: Activity
M14 = experiment: Cytotoxicity against human M14 cells assessed as cell growth at 10^-4 M after 48 hrs by SRB assay; settings: M14, 48 h, read-out: Activity
[11] = Cytotoxicity against human Hs578T cells assessed as cell growth at 10^-8 M after 48 hrs by SRB assay; settings: Hs-578T, read-out: Activity
COLO 205 [12] = experiment: Cytotoxicity against human COLO205 cells after 48 hrs by SRB assay; settings: COLO 205, 48 h
T47D = experiment: Cytotoxicity against human T47D cells after 48 hrs by SRB assay
OVCAR-8 = experiment: Cytotoxicity against human OVCAR8 cells assessed as cell growth at 10^-7 M after 48 hrs by SRB assay; settings: OVCAR-8, 48 h, read-out: Activity
HT-29 [13] = experiment: Cytotoxicity against human HT-29 cells assessed as cell growth at 10^-4 M after 48 hrs by SRB assay; settings: HT-29, 48 h, read-out: Activity
NCI-H522 = experiment: Cytotoxicity against human NCI-H522 cells assessed as cell growth at 10^-7 M after 48 hrs by SRB assay; settings: NCI-H522, 48 h, read-out: Activity
SN12C [14] = experiment: Cytotoxicity against human SN12C cells assessed as cell growth at 10^-8 M after 48 hrs by SRB assay; settings: read-out: Activity
HOP-92 = experiment: Cytotoxicity against human HOP92 cells assessed as cell growth at 10^-7 M after 48 hrs by SRB assay; settings: HOP-92, 48 h, read-out: Activity
MOLT-4 [15] = experiment: Cytotoxicity against human MOLT4 cells assessed as cell growth at 10^-8 M after 48 hrs by SRB assay; settings: MOLT-4, 48 h, read-out: Activity
SK-OV-3 = experiment: Cytotoxicity against human SKOV3 cells assessed as cell growth at 10^-4 M after 48 hrs by SRB assay; settings: SK-OV-3, 48 h, read-out: Activity
K562 = experiment: Cytotoxicity against human K562 cells assessed as cell growth at 10^-4 M after 48 hrs by SRB assay; settings: K562, 48 h, read-out: Activity
HT-29 [16] = experiment: Cytotoxicity against human HT-29 cells after 48 hrs by SRB assay; settings: HT-29, 48 h
RPMI-8226 [17] = experiment: Cytotoxicity against human RPMI8226 cells assessed as cell growth at 10^-6 M after 48 hrs by SRB assay; settings: RPMI-8226, 48 h, read-out: Activity
NCI-H322M = experiment: Cytotoxicity against human NCI-H322M cells assessed as cell growth at 10^-4 M after 48 hrs by SRB assay; settings: read-out: Activity
RPMI-8226 [18] = experiment: Cytotoxicity against human RPMI8226 cells after 48 hrs by SRB assay; settings: RPMI-8226, 48 h
NCI-H23 = experiment: Cytotoxicity against human NCI-H23 cells after 48 hrs by SRB assay; settings: NCI-H23, 48 h
TK-10 = experiment: Cytotoxicity against human TK10 cells after 48 hrs by SRB assay; settings: TK-10, 48 h

C=CCn1c(C)nc2cc(Nc3nc(Nc4ccc5nc(C)n(CC=C)c5c4)c4ccccc4n3)ccc21
growth at 0.01 µM [1]: 93%
GI50 (BT-549 [2]): 1680 nM
TGI (BT-549 [2]): 3100 nM
growth at 1 µM (SN12C [3]): 65%
growth at 100 µM (RXF 393): -31%
growth at 0.1 µM (MDA-MB-468): 89%
growth at 0.1 µM (SK-MEL-2): 98%
GI50 (KM12): 223 nM
LC50 (concentration killing 50% of cells) (KM12): 1460 nM
TGI (KM12): 513 nM
growth at 0.01 µM (NCI-H460 [4]): 102%
growth at 1 µM (HCT-116): -54%
growth at 100 µM (NCI-H460 [5]): 1%
growth at 0.01 µM (SF-539): 96%
growth at 0.1 µM (Malme-3M): 97%
GI50 (MOLT-4 [6]): 229 nM
LC50 (MOLT-4 [6]): > 100000 nM
TGI (MOLT-4 [6]): 629 nM
growth at 1 µM (MDA-MB-231): -62%
growth at 0.1 µM (SNB-19): 88%
growth at 1 µM (BT-549 [7]): 93%
growth at 0.1 µM [8]: 86%
GI50 [9]: 276 nM
TGI [9]: 730 nM
growth at 100 µM (COLO 205 [10]): -6%
growth at 0.1 µM (SF-295): 93%
growth at 100 µM (M14): -4%
growth at 0.01 µM [11]: 90%
GI50 (COLO 205 [12]): 195 nM
TGI (COLO 205 [12]): 375 nM
GI50 (T47D): 280 nM
LC50 (T47D): > 100000 nM
TGI (T47D): 909 nM
growth at 0.1 µM (OVCAR-8): 101%
growth at 100 µM (HT-29 [13]): -50%
growth at 0.1 µM (NCI-H522): 90%
growth at 0.01 µM (SN12C [14]): 94%
growth at 0.1 µM (HOP-92): 91%
growth at 0.01 µM (MOLT-4 [15]): 98%
growth at 100 µM (SK-OV-3): -29%
growth at 100 µM (K562): 2%
GI50 (HT-29 [16]): 190 nM
LC50 (concentration killing 50% of cells) (HT-29 [16]): 100000 nM
TGI (HT-29 [16]): 349 nM
growth at 1 µM (RPMI-8226 [17]): 59%
growth at 100 µM (NCI-H322M): -70%
GI50 (RPMI-8226 [18]): 1240 nM
LC50 (RPMI-8226 [18]): > 100000 nM
TGI (RPMI-8226 [18]): 3930 nM
GI50 (NCI-H23): 2050 nM
TGI (NCI-H23): 4200 nM
GI50 (TK-10): 522 nM
LC50 (TK-10): 4130 nM
TGI (TK-10): 1710 nM
